Measurements from patent publication US11590116B2 (THERAVANCE BIOPHARMA R&D IP, LLC, priority 2019, dated 2023).

Experiments:
[1] = molecular target: T1, recombinant human ALK5 (TGF-βR1) protein (Homo sapiens, UniProt P36897); assay: Biochemical ALK5 (TGF-βR1) assay to measure pKi (LANCE Ultra ULight kinase assay); conditions: apparent pKi from pIC50 by Cheng-Prusoff, read-out: ALK5 pKi (converted)
T1 construct: purchased Life Technologies PR9075A
T1 sequence (P36897 34-503): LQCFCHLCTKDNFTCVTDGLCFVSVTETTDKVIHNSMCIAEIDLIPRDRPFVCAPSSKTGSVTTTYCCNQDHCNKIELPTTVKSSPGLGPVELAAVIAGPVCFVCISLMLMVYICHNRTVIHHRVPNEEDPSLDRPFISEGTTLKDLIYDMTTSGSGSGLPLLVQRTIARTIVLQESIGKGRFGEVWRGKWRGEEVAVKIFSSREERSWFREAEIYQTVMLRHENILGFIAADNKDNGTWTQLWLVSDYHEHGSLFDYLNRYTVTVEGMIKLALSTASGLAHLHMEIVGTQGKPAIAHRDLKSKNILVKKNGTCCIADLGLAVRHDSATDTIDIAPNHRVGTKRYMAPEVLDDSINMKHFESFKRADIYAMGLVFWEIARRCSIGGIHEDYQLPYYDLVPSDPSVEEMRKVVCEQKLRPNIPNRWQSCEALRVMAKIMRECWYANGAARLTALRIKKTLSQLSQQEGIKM
Procedure: The assays were performed in a 384-well plate (24 columns×16 wells/rows). An Echo® 550 Liquid Handler (Labcyte) was used to prepare various intermediate concentrations of compounds of the present disclosure in 100% DMSO. From the intermediate concentrations, a range of concentrations (from 10 μM to 25 pM corresponding to volumes up to 105 nL) were prepared and ejected into a final assay plate to be used to create individual dose response curves for each of the subject compounds. To a separate column within the assay plate, 105 nL of DMSO in each well was used to establish a maximum assay signal.
With a multidrop dispenser, 8 μL of enzyme mixture (1.25× final) was added to each well. […] The plate was then sealed with an adhesive seal and allowed to equilibrate for 60 minutes at room temperature.
Next, 2 μL of 125 μM ATP (5× final, 125 μM ATP prepared in assay buffer with 2 mM DTT) was added to the incubated mixtures, covered with a MicroClime® Environmental Lid (Product No. LLS-0310, Labcyte) and immediately transferred to 37° C. The reactions were allowed to proceed at 37° C. for 60 minutes before terminating with the addition of 10 μL of detection antibody (LANCE® (lanthanide chelate excite) Ultra Europium-anti-phospo-DNA Topoisomerase 2-alpha (Thr1342)) in detection mixture (12 mM EDTA, 4 nM detection antibody prepared in detection buffer (50 mM Tris-HCl, 150 mM NaCl, 0.5% BSA (Fraction V), pH 7.0)) at room temperature. The plate was then read on a Perkin Elmer EnVision Plate Reader using europium specific reader settings with excitation and emission wavelengths set to 320 or 340 nm and 665 nm, respectively.
For dose-response analyses, percent inhibition versus compound concentrations were plotted, and pIC50 values were determined from a 4-parameter robust fit model with GraphPad Prism V5 Software (GraphPad Software, Inc., La Jolla, Calif.). This model obtains pIC50 values by fitting the sigmoidal dose-response (variable slope) equation to the data. Results were expressed as pIC50 (negative logarithm of IC50) and subsequently converted to pKi (negative logarithm of dissociate constant, K) using the Cheng-Prusoff equation. The higher the value of pKi (lower value of Ki), the greater the inhibition of ALK5 activity.

[2] = test system: TGF-β-stimulated SMAD3 phosphorylation in BEAS-2B cells; assay: Cellular ALK5 potency assay, inhibition of TGF-β stimulated pSMAD3 formation in BEAS-2B cells; assay type: cell-based; conditions: Homo sapiens; inhibition of TGF-β stimulated pSMAD3 formation, BEAS-2B cells; read-out: BEAS2B pIC50 (converted)
Procedure: The potency of compounds of the present disclosure for inhibition of TGF-β-stimulated SMAD3 phosphorylation was measured in BEAS-2B cells, a human lung epithelial cell line. TGF-β signals through activin receptor-like kinase 5 (ALK5) immediately prior to SMAD3 phosphorylation.
BEAS-2B cells were grown using 50% DMEM (Life Technologies) and 50% F-12 (Life Technologies) media, supplemented with 10% Fetal Bovine Serum (ATCC), 25 mM HEPES (Life Technologies), and 1× Pen-Strep (Life Technologies). Cells were cultured in a humidified incubator set at 37° C., 5% CO2, and trypsonized using 0.25% Trypsin with 0.5% polyvinylpyrrolidone (PVP).
For the assay, BEAS-2B cells were seeded at 7,500 cells/well (25 μL/well) in a 384-well plate and cultured overnight. Before dosing, growth media was aspirated and the wells were rinsed with HBSS Buffer (HBSS with Calcium and Magnesium, Life Technologies) supplemented with 25 mM HEPES (Life Technologies) and 1% Bovine Serum Albumin (Roche). Compounds were serially diluted in DMSO, then further diluted with supplemented HBSS Buffer (50 μL/well) to create a compound plate 3× of the final assay concentration, at 0.3% DMSO. The diluted compounds were then added to the cells (8 μL/well) and incubated at 37° C., 5% CO2 for 1 hour. After the compound incubation, TGF-β (R&D Systems) reconstituted in supplemented HBSS Buffer was added to the cells ([…], final concentration 10 ng/mL) and incubated for a further 30 minutes, after which the cells were immediately lysed with AlphaLISA lysis buffer (PerkinElmer). AlphaLISA Acceptor and Detector beads (PerkinElmer) were added 2 hours apart, then incubated overnight to be read the next day. The potency of the compound was determined through analysis of dose-dependent quantified changes in pSMAD3 signal from baseline (non-compound treated TGF-β stimulated cells). Data are expressed as pIC50 (negative decadic logarithm IC50) values.

Ki [1] [nM] | Structure (SMILES) | IC50 [2] [nM]
0.398 to 3.16 | CCNC(=O)C1CCN(CCNc2cnc3ccc(-c4nc[nH]c4-c4cccc(C)n4)cc3c2)CC1 [Compound 643, N-ethyl-1-[2-[[6-[5-(6-methyl-2-pyridyl)-1H-imidazol-4-yl]-3-quinolyl]amino]ethyl]piperidine-4-carboxamide] | 25.1 to 158
0.0398 to 0.316 | Cc1cccc(-c2n[nH]cc2-c2ccc3ncc(-c4c(C)n[nH]c4C)cc3n2)n1 [Compound 366, 7-(3,5-dimethyl-1H-pyrazol-4-yl)-2-[3-(6-methyl-2-pyridyl)-1H-pyrazol-4-yl]-1,5-naphthyridine] | 200 to 1260
0.398 to 3.16 | Cc1cccc(-c2[nH]cnc2-c2ccc3ncc(C(=O)O[C@H]4CC[C@@H](N)CC4)cc3c2)n1 [Compound 1066, (4-aminocyclohexyl) 6-[5-(6-methyl-2-pyridyl)-1H-imidazol-4-yl]quinoline-3-carboxylate] | 200 to 1260
0.0398 to 0.316 | Cc1cccc(-c2nnn(C)c2-c2ccc3ncc(N4CCC(N(C)C)C4)cc3c2)n1 (racemic) [Compound 25, rac-(3S)-N,N-dimethyl-1-[6-[3-methyl-5-(6-methyl-2-pyridyl)triazol-4-yl]-3-quinolyl]pyrrolidin-3-amine] | 25.1 to 158
0.0398 to 0.316 | Cc1cccc(-c2nnn(Cc3ccccc3)c2-c2ccc3ncc(-c4cnn(C5CCCNC5)c4)cc3c2)n1 (stereo not shown) [Compound 27, 6-[3-benzyl-5-(6-methyl-2-pyridyl)triazol-4-yl]-3-[1-(3-piperidyl)pyrazol-4-yl]quinoline] | 25.1 to 158
0.0398 to 0.316 | Cc1cccc(-c2n[nH]cc2-c2ccc3ncc(N4CCCCC4)cc3n2)n1 [Compound 22, 2-[3-(6-methyl-2-pyridyl)-1H-pyrazol-4-yl]-7-(1-piperidyl)-1,5-naphthyridine] | 25.1 to 158
0.398 to 3.16 | Cc1cccc(-c2[nH]cnc2-c2ccc3nccc(C(=O)OCC4CCNCC4)c3c2)n1 [Compound 1078, 4-piperidylmethyl 6-[5-(6-methyl-2-pyridyl)-1H-imidazol-4-yl]quinoline-4-carboxylate] | 25.1 to 158
0.0398 to 0.316 | Cc1cccc(-c2[nH]ncc2-c2ccc3ncc(C(=O)OC4CCC5(CNC5)C4)cc3n2)n1 (stereo not shown) [Compound 62, 2-azaspiro[3.4]octan-6-yl 6-[5-(6-methyl-2-pyridyl)-1H-pyrazol-4-yl]-1,5-naphthyridine-3-carboxylate] | 200 to 1260
0.0398 to 0.316 | Cc1cccc(-c2n[nH]cc2-c2ccc3ncc(-c4nnc5n4CCN5)cc3n2)n1 [Compound 102, 7-(6,7-dihydro-5H-imidazo[2,1-c][1,2,4]triazol-3-yl)-2-[3-(6-methyl-2-pyridyl)-1H-pyrazol-4-yl]-1,5-naphthyridine] | 1580 to 10000
0.398 to 3.16 | Cc1cccc(-c2[nH]cnc2-c2ccc3ncc(NCC(=O)O)cc3c2)n1 [Compound 1162, 2-[[6-[5-(6-methyl-2-pyridyl)-1H-imidazol-4-yl]-3-quinolyl]amino]acetic acid] | 200 to 1260
< 0.0316 | Cc1cccc(-c2[nH]cnc2-c2ccc3ncc(-c4csc(C(=O)OCCC5CNC5)c4)cc3c2)n1 [Compound 1169, 2-(azetidin-3-yl)ethyl 4-[6-[5-(6-methyl-2-pyridyl)-1H-imidazol-4-yl]-3-quinolyl]thiophene-2-carboxylate] | 25.1 to 158
0.0398 to 0.316 | Cc1cccc(-c2[nH]ncc2-c2ccc3ncc(C(=O)OCCN4CC[C@@H](N)C4)cc3c2)n1 [Compound 1211, 2-[(3R)-3-aminopyrrolidin-1-yl]ethyl 6-[5-(6-methyl-2-pyridyl)-1H-pyrazol-4-yl]quinoline-3-carboxylate] | 25.1 to 158
0.0398 to 0.316 | Cc1cccc(-c2n[nH]cc2-c2ccc3ncc(N4CCC5(CCN(C(=O)OCc6ccccc6)C5)C4)cc3n2)n1 (stereo not shown) [Compound 124, benzyl 7-[6-[3-(6-methyl-2-pyridyl)-1H-pyrazol-4-yl]-1,5-naphthyridin-3-yl]-2,7-diazaspiro[4.4]nonane-2-carboxylate] | 25.1 to 158
0.0398 to 0.316 | Cc1cccc(-c2nnn(Cc3ccccc3)c2-c2ccc3ncc(-c4cn[nH]c4)cc3n2)n1 [Compound 170, 2-[3-benzyl-5-(6-methyl-2-pyridyl)triazol-4-yl]-7-(1H-pyrazol-4-yl)-1,5-naphthyridine] | 25.1 to 158
0.0398 to 0.316 | Cc1cccc(-c2[nH]cnc2-c2ccc3ncc(-c4cccc(C(=O)O[C@H]5CCN(C)C5)c4)cc3c2)n1 [Compound 522, [(3S)-1-methylpyrrolidin-3-yl] 3-[6-[5-(6-methyl-2-pyridyl)-1H-imidazol-4-yl]-3-quinolyl]benzoate] | 25.1 to 158
0.0398 to 0.316 | CNCCn1cc(-c2cnc3ccc(-c4c(-c5cccc(C)n5)nn5c4CNCC5)nc3c2)cn1 [Compound 64, N-methyl-2-[4-[6-[2-(6-methyl-2-pyridyl)-4,5,6,7-tetrahydropyrazolo[1,5-a]pyrazin-3-yl]-1,5-naphthyridin-3-yl]pyrazol-1-yl]ethanamine] | 200 to 1260
0.0398 to 0.316 | Cc1cccc(-c2[nH]cnc2-c2ccc3ncc(NCCN4CCCC4)cc3n2)n1 [Compound 573, 6-[5-(6-methyl-2-pyridyl)-1H-imidazol-4-yl]-N-(2-pyrrolidin-1-ylethyl)-1,5-naphthyridin-3-amine] | 25.1 to 158
0.0398 to 0.316 | Cc1cccc(-c2[nH]cnc2-c2ccc3ncc(-c4ccc(C(=O)OCC5CNC5)s4)cc3c2)n1 [Compound 1007, azetidin-3-ylmethyl 5-(6-(5-(6-methylpyridin-2-yl)-1H-imidazol-4-yl)quinolin-3-yl)thiophene-2-carboxylate] | 25.1 to 158
0.0398 to 0.316 | Cc1cccc(-c2[nH]cnc2-c2ccc3ncc(-c4ccc(C(=O)OCCN5CCN6CCCC6C5)cn4)cc3c2)n1 (stereo not shown) [Compound 1212, 2-(3,4,6,7,8,8a-hexahydro-1H-pyrrolo[1,2-a]pyrazin-2-yl)ethyl 6-[6-[5-(6-methyl-2-pyridyl)-1H-imidazol-4-yl]-3-quinolyl]pyridine-3-carboxylate] | 25.1 to 158
0.0398 to 0.316 | Cc1cccc(-c2n[nH]cc2-c2ccc3ncc(N4CCN(Cc5cccnc5)CC4)cc3n2)n1 [Compound 132, 2-[3-(6-methyl-2-pyridyl)-1H-pyrazol-4-yl]-7-[4-(3-pyridylmethyl)piperazin-1-yl]-1,5-naphthyridine] | 25.1 to 158
